Experimental data taken from ChEMBL document CHEMBL4033731, “Structural development of 1,2,3,4-tetrahydroisoquinoline-type positive allosteric modulators of prostacyclin receptor (IPPAMs) to improve metabolic stability, and investigation of metabolic fate” (Bioorg Med Chem Lett, 2017).
Calls of active or inactive are those of the source. The rule behind the calls is not given here.

Columns and labels:
[1] = Half life in human hepatic microsomes at 0.1 uM by HPLC-MS/MS method; format: ADME, Microsome; details: liver microsomes
[2] = biological target: Prostacyclin receptor (Homo sapiens) (UniProt P43119); assay: Positive allosteric modulator activity at human prostacyclin receptor expressed in CHO-K1 cells assessed as compound concentration needed to shift agonist concentration response curve leftward by 2-fold by measuring CAMP accumulation; format: cell-based
[3] = Drug level in human hepatic microsomes treated with 10 uM of 2-((1-tert-butyl-1H-tetrazol-5-yl)(3,4-dihydroisoquinolin-2(1H)-yl)methyl)-6-fluorophenol assessed as drug formation at 10 uM incubated for 90 mins at 37 degC by HPLC-MS/MS method relative to control; format: ADME, Liver, Microsome; details: 1.5 h
[4] = biological target: Prostacyclin receptor (Homo sapiens) (UniProt P43119); assay: Positive allosteric modulator activity at human prostacyclin receptor expressed in CHO-K1 cells assessed as compound concentration needed to shift agonist concentration response curve leftward by 2-fold by measuring CAMP accumulation at 100 uM; format: cell-based
[5] = Drug metabolism in human hepatic microsomes assessed as peak area for parent compound at 10 uM incubated for 90 mins at 37 degC by HPLC-MS/MS method relative to control; format: ADME, Microsome; details: liver microsomes, read-out: Stability
[6] = Drug metabolism in human hepatic microsomes assessed as 2-((1-tert-butyl-1H-tetrazol-5-yl)(3,4-dihydroisoquinolin-2(1H)-yl)methyl)-4-fluorophenol formation at 10 uM incubated for 90 mins at 37 degC by HPLC-MS/MS method relative to control; format: ADME, Liver, Microsome; details: 1.5 h
[7] = Drug metabolism in human hepatic microsomes assessed as 2-((3,4-dihydroisoquinolin-2(1H)-yl)(1-(1-hydroxy-2-methylpropan-2-yl)-1H-tetrazol-5-yl)methyl)-6-fluorophenol formation at 10 uM incubated for 90 mins at 37 degC by HPLC-MS/MS method relative to control; format: ADME, Liver, Microsome; details: 1.5 h

Chain of Prostacyclin receptor (Homo sapiens) (P43119 whole entry): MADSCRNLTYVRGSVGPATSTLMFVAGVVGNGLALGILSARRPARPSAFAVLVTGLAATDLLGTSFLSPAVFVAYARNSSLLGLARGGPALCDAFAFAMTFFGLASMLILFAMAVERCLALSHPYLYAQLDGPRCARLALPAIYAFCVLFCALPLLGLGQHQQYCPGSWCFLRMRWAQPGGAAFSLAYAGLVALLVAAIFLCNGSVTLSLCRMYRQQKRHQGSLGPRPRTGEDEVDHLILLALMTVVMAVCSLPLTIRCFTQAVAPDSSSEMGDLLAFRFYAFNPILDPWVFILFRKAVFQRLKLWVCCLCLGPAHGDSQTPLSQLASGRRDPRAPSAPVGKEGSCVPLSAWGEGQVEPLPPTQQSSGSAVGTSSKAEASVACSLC

Structure (SMILES)	half-life at 0.1 µM [1] [min]	Activity [2]	also measured
CC(C)(C)n1nnnc1C(c1ccccc1)N1CCc2ccccc2C1 (centres undefined)	6	6.9 µM	
CC(C)(CO)n1nnnc1C(c1cccc(F)c1O)N1CCc2ccccc2C1 (centres undefined)			Drug metabolism [3]: Metabolite_Detected
COc1ccccc1C(c1nnnn1C(C)(C)C)N1CCc2ccccc2C1 (centres undefined)	8	4.3 µM	
CC(C)(C)n1nnnc1C(c1cccc(O)c1O)N1CCc2ccccc2C1 (centres undefined)			Drug metabolism [3]: Metabolite_Detected
CC(C)(C)n1nnnc1C(c1ccccc1F)N1CCc2ccccc2C1 (centres undefined)	3	4.7 µM	
COc1ccccc1C(c1nnnn1C(C)(C)C)N1CCc2ccc(F)cc2C1 (centres undefined)	6	15.2 µM	
CC(C)(C)n1nnnc1C(c1cccc(F)c1O)N1CCc2ccccc2C1 (centres undefined)	21	8.2 µM	remaining at 1.5 h, 10 µM [5]: 1.04%; Drug metabolism [6]: Metabolite_Detected; Drug metabolism [7]: Metabolite_Detected

More lines, main results first:

half-life at 0.1 µM [1] [min]	Activity [2]	Structure (SMILES)	also measured
7	1.4 µM	CC(C)(C)n1nnnc1C(c1ccccc1O)N1CCc2ccccc2C1 (centres undefined)	
6	inactive	CC(C)(C)NC(=O)C(c1ccccc1)N1CCc2ccccc2C1 (centres undefined)	Activity [4]: inactive
3	6.2 µM	COc1ccccc1C(c1nnnn1C(C)(C)C)N1CCC2CCCCC2C1 (centres undefined)	
5	12 µM	CC(C)(C)n1nnnc1C(c1cc(F)ccc1O)N1CCc2ccccc2C1 (centres undefined)	
